Reference: patent publication US20250145665A1, “MACROCYCLIC PEPTIDES USEFUL AS MODULATORS OF TNF ALPHA” (Bristol-Myers Squibb Company, priority 2023, published 2025)
Read-outs that look alike come from different tables or passages of the source. Starred links: 1 amine or outer side, 2 acyl side, 3 side chain; linkers in the order of their positions; H or OH if unused. Positions of bridges follow the written chain, without caps; N, C: chain ends. Non-standard residues stand in square brackets, D forms with d. Residues, ends and D or L forms follow the SMILES beside them. *: point of attachment. Bip(4'-NHCO-C6H4-3-CH2COOH) = N[C@@H](Cc1ccc(-c2ccc(NC(=O)c3cccc(CC(=O)O)c3)cc2)cc1)C(=O)O; Bip(4'-NHCO-C6H4-4-CH2COOH) = N[C@@H](Cc1ccc(-c2ccc(NC(=O)c3ccc(CC(=O)O)cc3)cc2)cc1)C(=O)O; dArg(Nω-CH2C6H4-3-CH2Gua) = N=C(N)NCc1cccc(CNC(=N)NCCC[C@@H](N)C(=O)O)c1; X21 = N=C(NCCC[C@@H](N[*:1])C(=O)[*:2])NC[C@H](O)[C@@H](O)[C@@H](O)CO; Bip(4'-NH) = O=C([C@H](Cc1ccc(-c2ccc(N[*:3])cc2)cc1)N[*:1])[*:2]; Indazole3carbonyl(1-CH2COOH) = O=C(O)Cn1nc(C(=O)*)c2ccccc21; Bip(4'-COOH) = N[C@@H](Cc1ccc(-c2ccc(C(=O)O)cc2)cc1)C(=O)O; Indole3carbonyl(1-CH2COOH) = O=C(O)Cn1cc(C(=O)*)c2ccccc21; dArg(ω-Bn) = N=C(NCCC[C@@H](N)C(=O)O)NCc1ccccc1; Ala(morpholin-4-yl) = N[C@@H](CN1CCOCC1)C(=O)O; Benzoyl(3-OCH2COOH) = O=C(O)COc1cccc(C(=O)*)c1; Phe(3-CONH2) = NC(=O)c1cccc(C[C@H](N)C(=O)O)c1; Bip = N[C@@H](Cc1ccc(-c2ccccc2)cc1)C(=O)O; X13 = O=C([C@H](Cc1ccc[nH]1)N[*:1])[*:2]; Cha = N[C@@H](CC1CCCCC1)C(=O)O; Tle = CC(C)(C)[C@H](N)C(=O)O; Sar = CNCC(=O)O

Molecular target: TNFα (Homo sapiens, UniProt P01375)
Assay: TNF-Induced HEK-Blue Assay
Format: cell-based
[1] = HEK-Blue-CD40L cells, NF-kB-driven secreted alkaline phosphatase reporter, TNFα 0.5 ng/ml, 18 h, read-out: TNF induced HEK-Blue assay IC50 value

TNFα, sequence (P01375 77-233 limits assumed): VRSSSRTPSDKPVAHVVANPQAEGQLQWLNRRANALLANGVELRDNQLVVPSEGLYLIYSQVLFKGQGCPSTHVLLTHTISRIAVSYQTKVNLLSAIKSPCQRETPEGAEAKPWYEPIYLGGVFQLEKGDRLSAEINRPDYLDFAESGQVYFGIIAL

Compound | IC50 [µM] | IC50 [1] [µM]
CC(C)C[C@@H]1NC(=O)[C@H](Cc2ccc(O)cc2)NC(=O)[C@H](C(C)C)NC(=O)[C@@H]2CCCN2C(=O)[C@H](C(C)C)NC(=O)[C@@H](CCCNC(=N)NCc2ccccc2)NC(=O)[C@H](CC(=O)O)NC(=O)[C@@H]2CCCN2C(=O)CN(C)C(=O)[C@H](Cc2ccc(-c3ccc(NC(=O)c4cn(CC(=O)O)c5ccccc45)cc3)cc2)NC(=O)[C@H](Cc2ccc(-c3ccc(C(=O)O)cc3)cc2)NC(=O)[C@H](CC2CCCCC2)NC(=O)CSC[C@@H](C(=O)NCC(N)=O)NC1=O [Example 580] ({CH2CO}-[Cha][Bip(4'-COOH)][Bip(4'-NH)](Indole3carbonyl(1-CH2COOH))[Sar]PD[dArg(ω-Bn)]VPVYLCG-NH2; thioether N-13) | < 0.05 | –
CC(C)C[C@@H]1NC(=O)[C@H](Cc2ccc(O)cc2)NC(=O)[C@H](C(C)C)NC(=O)[C@@H]2CCCN2C(=O)[C@H](C(C)C)NC(=O)[C@@H](CCCNC(=N)NCc2ccccc2)NC(=O)[C@H](CC(=O)O)NC(=O)[C@@H]2CCCN2C(=O)CN(C)C(=O)[C@H](Cc2ccc(-c3ccc(NC(=O)c4ccc(CC(=O)O)cc4)cc3)cc2)NC(=O)[C@H](Cc2ccc(-c3ccc(C(=O)O)cc3)cc2)NC(=O)[C@H](CC2CCCCC2)NC(=O)CSC[C@@H](C(=O)NCC(N)=O)NC1=O [Example 582] ({CH2CO}-[Cha][Bip(4'-COOH)][Bip(4'-NHCO-C6H4-4-CH2COOH)][Sar]PD[dArg(ω-Bn)]VPVYLCG-NH2; thioether N-13) | – | < 0.05
CC(C)C[C@@H]1NC(=O)[C@H](Cc2ccc(O)cc2)NC(=O)[C@H](C(C)C)NC(=O)[C@@H]2CCCN2C(=O)[C@H](C(C)C)NC(=O)[C@@H](CCCNC(=N)NCc2ccccc2)NC(=O)[C@H](CC(=O)O)NC(=O)[C@@H]2CCCN2C(=O)CN(C)C(=O)[C@H](Cc2ccc(-c3ccc(NC(=O)c4cccc(CC(=O)O)c4)cc3)cc2)NC(=O)[C@H](Cc2ccc(-c3ccc(C(=O)O)cc3)cc2)NC(=O)[C@H](CC2CCCCC2)NC(=O)CSC[C@@H](C(=O)NCC(N)=O)NC1=O [Example 583] ({CH2CO}-[Cha][Bip(4'-COOH)][Bip(4'-NHCO-C6H4-3-CH2COOH)][Sar]PD[dArg(ω-Bn)]VPVYLCG-NH2; thioether N-13) | – | 0.05 to 0.2
CC[C@H](C)[C@@H]1NC(=O)[C@@H](CCCNC(=N)NCc2ccccc2)NC(=O)[C@H](CC(=O)O)NC(=O)[C@H](Cc2cnc[nH]2)NC(=O)CN(C)C(=O)[C@H](Cc2ccc(-c3ccc(NC(=O)c4ccc(CC(=O)O)cc4)cc3)cc2)NC(=O)[C@H](Cc2ccc(-c3ccc(C(=O)O)cc3)cc2)NC(=O)[C@H](CC2CCCCC2)NC(=O)CSC[C@@H](C(=O)NCC(N)=O)NC(=O)[C@H](CC(C)C)NC(=O)[C@H](Cc2cnc[nH]2)NC(=O)[C@H](C(C)C)NC(=O)[C@@H]2CCCN2C1=O [Example 584] ({CH2CO}-[Cha][Bip(4'-COOH)][Bip(4'-NHCO-C6H4-4-CH2COOH)][Sar]HD[dArg(ω-Bn)]IPVHLCG-NH2; thioether N-13) | – | 0.05 to 0.2
CC[C@H](C)[C@@H]1NC(=O)[C@@H](CCCNC(=N)NCc2ccccc2)NC(=O)[C@H](CC(=O)O)NC(=O)[C@H](Cc2cnc[nH]2)NC(=O)CN(C)C(=O)[C@H](Cc2ccc(-c3ccc(NC(=O)c4cccc(OCC(=O)O)c4)cc3)cc2)NC(=O)[C@H](Cc2ccc(-c3ccc(C(=O)O)cc3)cc2)NC(=O)[C@H](CC2CCCCC2)NC(=O)CSC[C@@H](C(=O)NCC(N)=O)NC(=O)[C@H](CC(C)C)NC(=O)[C@H](Cc2cnc[nH]2)NC(=O)[C@H](C(C)C)NC(=O)[C@@H]2CCCN2C1=O [Example 585] ({CH2CO}-[Cha][Bip(4'-COOH)][Bip(4'-NH)](Benzoyl(3-OCH2COOH))[Sar]HD[dArg(ω-Bn)]IPVHLCG-NH2; thioether N-13) | – | 0.05 to 0.2
CC[C@H](C)[C@@H]1NC(=O)[C@@H](CCCNC(=N)N)NC(=O)[C@H](CC(=O)O)NC(=O)[C@H](Cc2cnc[nH]2)NC(=O)CN(C)C(=O)[C@H](Cc2ccc(-c3ccc(NC(=O)c4cccc(OCC(=O)O)c4)cc3)cc2)NC(=O)[C@H](Cc2ccc(-c3ccc(C(=O)O)cc3)cc2)NC(=O)[C@H](CC2CCCCC2)NC(=O)CSC[C@@H](C(=O)NCC(N)=O)NC(=O)[C@H](CC(C)C)NC(=O)[C@H](Cc2cccc(C(N)=O)c2)NC(=O)[C@H](C(C)C)NC(=O)[C@@H]2CCCN2C1=O [Example 586] ({CH2CO}-[Cha][Bip(4'-COOH)][Bip(4'-NH)](Benzoyl(3-OCH2COOH))[Sar]HD[dR]IPV[Phe(3-CONH2)]LCG-NH2; thioether N-13) | – | < 0.05
CC(C)C[C@@H]1NC(=O)[C@H](Cc2cccc(C(N)=O)c2)NC(=O)[C@H](C(C)C)NC(=O)[C@@H]2CCCN2C(=O)[C@H](C(C)C)NC(=O)[C@@H](CCCNC(=N)N)NC(=O)[C@H](CC(=O)O)NC(=O)[C@H](Cc2cnc[nH]2)NC(=O)CN(C)C(=O)[C@H](Cc2ccc(-c3ccc(NC(=O)c4cccc(OCC(=O)O)c4)cc3)cc2)NC(=O)[C@H](Cc2ccc(-c3ccc(C(=O)O)cc3)cc2)NC(=O)[C@H](CC2CCCCC2)NC(=O)CSC[C@@H](C(=O)NCC(N)=O)NC1=O [Example 587] ({CH2CO}-[Cha][Bip(4'-COOH)][Bip(4'-NH)](Benzoyl(3-OCH2COOH))[Sar]HD[dR]VPV[Phe(3-CONH2)]LCG-NH2; thioether N-13) | – | < 0.05
CC[C@H](C)[C@@H]1NC(=O)[C@@H](CCCNC(=N)N)NC(=O)[C@H](CC(=O)O)NC(=O)[C@H](Cc2cnc[nH]2)NC(=O)CN(C)C(=O)[C@H](Cc2ccc(-c3ccc(NC(=O)c4cccc(CC(=O)O)c4)cc3)cc2)NC(=O)[C@H](Cc2ccc(-c3ccc(C(=O)O)cc3)cc2)NC(=O)[C@H](CC2CCCCC2)NC(=O)CSC[C@@H](C(=O)NCC(N)=O)NC(=O)[C@H](CC(C)C)NC(=O)[C@H](Cc2cccc(C(N)=O)c2)NC(=O)[C@H](C(C)C)NC(=O)[C@@H]2CCCN2C1=O [Example 588] ({CH2CO}-[Cha][Bip(4'-COOH)][Bip(4'-NHCO-C6H4-3-CH2COOH)][Sar]HD[dR]IPV[Phe(3-CONH2)]LCG-NH2; thioether N-13) | – | < 0.05
CC[C@H](C)[C@@H]1NC(=O)[C@@H](CCCNC(=N)N)NC(=O)[C@H](CC(=O)O)NC(=O)[C@H](Cc2cnc[nH]2)NC(=O)CN(C)C(=O)[C@H](Cc2ccc(-c3ccc(NC(=O)c4ccc(CC(=O)O)cc4)cc3)cc2)NC(=O)[C@H](Cc2ccc(-c3ccc(C(=O)O)cc3)cc2)NC(=O)[C@H](CC2CCCCC2)NC(=O)CSC[C@@H](C(=O)NCC(N)=O)NC(=O)[C@H](CC(C)C)NC(=O)[C@H](Cc2cccc(C(N)=O)c2)NC(=O)[C@H](C(C)C)NC(=O)[C@@H]2CCCN2C1=O [Example 589] ({CH2CO}-[Cha][Bip(4'-COOH)][Bip(4'-NHCO-C6H4-4-CH2COOH)][Sar]HD[dR]IPV[Phe(3-CONH2)]LCG-NH2; thioether N-13) | – | < 0.05
CC(C)C[C@@H]1NC(=O)[C@H](Cc2cccc(C(N)=O)c2)NC(=O)[C@H](C(C)C)NC(=O)[C@@H]2CCCN2C(=O)[C@H](C(C)C)NC(=O)[C@@H](CCCNC(=N)N)NC(=O)[C@H](CC(=O)O)NC(=O)[C@H](Cc2cnc[nH]2)NC(=O)CN(C)C(=O)[C@H](Cc2ccc(-c3ccc(NC(=O)c4cccc(OCC(=O)O)c4)cc3)cc2)NC(=O)[C@H](Cc2ccc(-c3ccc(C(=O)O)cc3)cc2)NC(=O)[C@H](C(C)(C)C)NC(=O)CSC[C@@H](C(=O)NCC(N)=O)NC1=O [Example 590] ({CH2CO}-[Tle][Bip(4'-COOH)][Bip(4'-NH)](Benzoyl(3-OCH2COOH))[Sar]HD[dR]VPV[Phe(3-CONH2)]LCG-NH2; thioether N-13) | – | < 0.05
CC[C@H](C)[C@@H]1NC(=O)[C@@H](CCCNC(=N)N)NC(=O)[C@H](CC(=O)O)NC(=O)[C@H](Cc2cnc[nH]2)NC(=O)CN(C)C(=O)[C@H](Cc2ccc(-c3ccc(NC(=O)c4cccc(OCC(=O)O)c4)cc3)cc2)NC(=O)[C@H](Cc2ccc(-c3ccc(C(=O)O)cc3)cc2)NC(=O)[C@H](C(C)(C)C)NC(=O)CSC[C@@H](C(=O)NCC(N)=O)NC(=O)[C@H](CC(C)C)NC(=O)[C@H](Cc2cccc(C(N)=O)c2)NC(=O)[C@H](C(C)C)NC(=O)[C@@H]2CCCN2C1=O [Example 591] ({CH2CO}-[Tle][Bip(4'-COOH)][Bip(4'-NH)](Benzoyl(3-OCH2COOH))[Sar]HD[dR]IPV[Phe(3-CONH2)]LCG-NH2; thioether N-13) | – | < 0.05
CC(C)C[C@@H]1NC(=O)[C@H](Cc2ccc[nH]2)NC(=O)[C@H](C(C)C)NC(=O)[C@@H]2CCCN2C(=O)[C@H](C(C)C)NC(=O)[C@@H](CCCNC(=N)N)NC(=O)[C@H](CC(=O)O)NC(=O)[C@H](Cc2cnc[nH]2)NC(=O)CN(C)C(=O)[C@H](Cc2ccc(-c3ccc(NC(=O)c4cccc(CC(=O)O)c4)cc3)cc2)NC(=O)[C@H](Cc2ccc(-c3ccc(C(=O)O)cc3)cc2)NC(=O)[C@H](C(C)(C)C)NC(=O)CSC[C@@H](C(=O)NCC(N)=O)NC1=O [Example 597] ({CH2CO}-[Tle][Bip(4'-COOH)][Bip(4'-NHCO-C6H4-3-CH2COOH)][Sar]HD[dR]VPV[X13]LCG-NH2; thioether N-13) | – | < 0.05
CC[C@H](C)[C@@H]1NC(=O)[C@@H](CCCNC(=N)NCc2cccc(CNC(=N)N)c2)NC(=O)[C@H](CC(=O)O)NC(=O)[C@@H]2CCCN2C(=O)CN(C)C(=O)[C@H](Cc2ccc(-c3ccc(NC(=O)c4nn(CC(=O)O)c5ccccc45)cc3)cc2)NC(=O)[C@H](Cc2ccc(-c3ccccc3)cc2)NC(=O)[C@H](CN2CCOCC2)NC(=O)CSC[C@@H](C(=O)NCC(N)=O)NC(=O)[C@H](CC(C)C)NC(=O)[C@H](Cc2cnc[nH]2)NC(=O)[C@H](C(C)C)NC(=O)[C@@H]2CCCN2C1=O [Example 598] ({CH2CO}-[Ala(morpholin-4-yl)][Bip][Bip(4'-NH)](Indazole3carbonyl(1-CH2COOH))[Sar]PD[dArg(Nω-CH2C6H4-3-CH2Gua)]IPVHLCG-NH2; thioether N-13) | < 0.05 | –
CC[C@H](C)[C@@H]1NC(=O)[C@@H](CCCNC(=N)NC[C@H](O)[C@@H](O)[C@@H](O)CO)NC(=O)[C@H](CC(=O)O)NC(=O)[C@@H]2CCCN2C(=O)CN(C)C(=O)[C@H](Cc2ccc(-c3ccc(NC(=O)c4nn(CC(=O)O)c5ccccc45)cc3)cc2)NC(=O)[C@H](Cc2ccc(-c3ccccc3)cc2)NC(=O)[C@H](CN2CCOCC2)NC(=O)CSC[C@@H](C(=O)NCC(N)=O)NC(=O)[C@H](CC(C)C)NC(=O)[C@H](Cc2cnc[nH]2)NC(=O)[C@H](C(C)C)NC(=O)[C@@H]2CCCN2C1=O [Example 599] ({CH2CO}-[Ala(morpholin-4-yl)][Bip][Bip(4'-NH)](Indazole3carbonyl(1-CH2COOH))[Sar]PD[X21]IPVHLCG-NH2; thioether N-13) | < 0.05 | –
